In US20240384268A1, “Oligonucleotides” (Hudson Institute of Medical Research, priority 2021, published 2024):
In the oligonucleotide strings, read from the 5' end, every base follows the letter of its sugar. An asterisk marks phosphorothioate; unmarked linkages are phosphodiester. Other units and linkages are bracketed, terminal groups are in braces. A string of capitals states the bases alone. d = 2'-deoxy (DNA); m = 2'-O-methyl

biological target: cGAS (Homo sapiens, UniProt Q8N884); assay: ISD70-driven IP-10 (and IFN-β) production in THP-1 cells, ELISA; assay type: cell-based; design: endogenous in cells; host or cells: THP-1 (undifferentiated); conditions: ASO 100 nM; relative to ISD70 only, given as fraction
Sequence (Q8N884 whole entry): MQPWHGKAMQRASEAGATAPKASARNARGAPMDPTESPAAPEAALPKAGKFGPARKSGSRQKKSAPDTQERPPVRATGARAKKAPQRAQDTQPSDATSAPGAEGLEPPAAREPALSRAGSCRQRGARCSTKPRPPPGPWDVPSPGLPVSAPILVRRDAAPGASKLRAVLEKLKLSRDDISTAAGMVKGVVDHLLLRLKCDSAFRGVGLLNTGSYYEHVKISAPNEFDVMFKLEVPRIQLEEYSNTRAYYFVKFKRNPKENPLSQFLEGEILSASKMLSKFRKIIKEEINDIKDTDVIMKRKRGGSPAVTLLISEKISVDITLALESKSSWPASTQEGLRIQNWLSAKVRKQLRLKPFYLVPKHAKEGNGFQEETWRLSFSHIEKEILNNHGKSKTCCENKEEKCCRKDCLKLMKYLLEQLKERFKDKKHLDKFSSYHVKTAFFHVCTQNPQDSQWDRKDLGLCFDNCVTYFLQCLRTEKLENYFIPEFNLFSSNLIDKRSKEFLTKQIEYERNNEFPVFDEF

Going from “GTCTCTGGAGCTTCCT (antisense; LNA-modified, pattern not given here) [CAMSAP1-2456 LNA V1]” to “CGCTTTTCTGTCTGGT (antisense; LNA-modified, pattern not given here) [CTNN2B-311 LNA KL]”, the “cGAS 100 nM (averaged IP-10 level relative to ISD70 condition)” value falls from 0.627 to 0.475.

First: CTTGAAGCATCGTATC (antisense; LNA-modified, pattern not given here) [CTNN2B-3648 LNA KL]
Second: GTCCTTGCACGTGGCT (antisense; LNA-modified, pattern not given here) [EGFR-1015 LNA V1]
The “cGAS 100 nM (averaged IP-10 level relative to ISD70 condition)” value of the first is lower: 0.373 for the first, 0.645 for the second.

First: CATCCACCACGTCGTC (antisense; LNA-modified, pattern not given here) [EGFR-3266 LNA V1]
Second: GCACTTCAGTCTGAGC (antisense; LNA-modified, pattern not given here) [MB21D1-719 LNA KL]
The “cGAS 100 nM (averaged IP-10 level relative to ISD70 condition)” value of the first is higher: 0.902 for the first, 0.797 for the second.

Going from “TTCAGGCGCTGCCTTG (antisense; LNA-modified, pattern not given here) [CAMSAP1-2709 LNA V1]” to “AGTGTTGAGATACTCG (antisense; LNA-modified, pattern not given here) [EGFR-3652 LNA KL]”, the “cGAS 100 nM (averaged IP-10 level relative to ISD70 condition)” value falls from 0.709 to 0.692.

First: CTGCAGCTTCCTTGTC (antisense; LNA-modified, pattern not given here) [CTNN2B-2136 LNA V1]
Second: ACCACGTCTGCTCTAA (antisense; LNA-modified, pattern not given here) [CAMSAP1-1635 LNA KL]
The “cGAS 100 nM (averaged IP-10 level relative to ISD70 condition)” value of the first is lower: 0.613 for the first, 0.638 for the second.

Going from “TGGTCCACAACCCCTT (antisense; LNA-modified, pattern not given here) [MB21D1-697 LNA V1]” to “ATCTGGCAGCCCATCA (antisense; LNA-modified, pattern not given here) [CTNN2B-2516 LNA V1]”, the “cGAS 100 nM (averaged IP-10 level relative to ISD70 condition)” value falls from 0.935 to 0.502.

Going from “GTCAAGGGCATATCCT (antisense; LNA-modified, pattern not given here) [HPRT LNA-732 KL]” to “TCTTCATCGGCCCTGC (antisense; LNA-modified, pattern not given here) [CAMSAP1-2112 LNA V1]”, the “cGAS 100 nM (averaged IP-10 level relative to ISD70 condition)” value falls from 0.636 to 0.548.

Going from “AGGTCTTGGCTTCGTG (antisense; LNA-modified, pattern not given here) [MB21D1-524 LNA V1]” to “GGAGGTCTTGGCTTCG (antisense; LNA-modified, pattern not given here) [MB21D1-526 LNA V1]”, the “cGAS 100 nM (averaged IP-10 level relative to ISD70 condition)” value rises from 0.947 to 1.061.

Going from “TCCATACCCAAGGCAT (antisense; LNA-modified, pattern not given here) [CTNN2B-2446 LNA V1]” to “AATCCAACAAAGTCTG (antisense; LNA-modified, pattern not given here) [HPRT LNA-692 KL]”, the “cGAS 100 nM (averaged IP-10 level relative to ISD70 condition)” value rises from 0.589 to 0.649.

For “TGTCTGGAAGCTTCCT (antisense; LNA-modified, pattern not given here) [CTNN2B-808 LNA V1]”, the “cGAS 100 nM (averaged IP-10 level relative to ISD70 condition)” value was 0.617.

same assay, conditions: THP-1; 100 nM ASO overnight, then ISD70 2.5 μg/ml 7-8 h; percentage of ISD70 only

Compared with “mG*mU*mG*mU*mU*T*T*T*A*A*T*T*T*T*G*mU*mA*mG*mA*mG (mG*mU*mG*mU*mU*dT*dT*dT*dA*dA*dT*dT*dT*dT*dG*mU*mA*mG*mA*mG) [[CDKN2B-AS1]611]”, “mG*mU*mG*mU*mC*C*T*T*C*A*T*G*C*T*T*mU*mG*mG*mA*mU (GUGUCCTTCATGCTTUGGAU; antisense; sugars from the 5' end m5 d10 m5, all phosphorothioate, methylation of C not given here) [[CDKN2B-AS1]1415]” is lower in “cGAS-100 nM: averaged IP-10 levels relative to ISD70” value: 66.24% for the first, 58.18% for the second.

Compared with “mA*mG*mC*mA*mG*T*C*T*C*C*A*T*G*T*C*mC*mC*mA*mG*mG (AGCAGTCTCCATGTCCCAGG; antisense; sugars from the 5' end m5 d10 m5, all phosphorothioate, methylation of C not given here) [[CDKN2B-AS1]2235]”, “mA*mG*mU*mC*mU*C*C*A*T*G*T*C*C*C*A*mG*mG*mC*mC*mU (mA*mG*mU*mC*mU*dC*dC*dA*dT*dG*dT*dC*dC*dC*dA*mG*mG*mC*mC*mU; antisense) [[CDKN2B-AS1]2232]” is higher in “cGAS-100 nM: averaged IP-10 levels relative to ISD70” value: 28.75% for the first, 88.13% for the second.

Compared with “mC*mA*mG*mU*mC*T*C*C*A*T*G*T*C*C*C*mA*mG*mG*mC*mC (mC*mA*mG*mU*mC*dT*dC*dC*dA*dT*dG*dT*dC*dC*dC*mA*mG*mG*mC*mC; antisense) [[CDKN2B-AS1]2233]”, “mA*mU*mU*mU*mC*C*A*C*A*T*G*C*C*C*A*mG*mU*mG*mU*mU (AUUUCCACATGCCCAGUGUU; antisense; sugars from the 5' end m5 d10 m5, all phosphorothioate, methylation of C not given here) [[CDKN2B-AS1]626]” is lower in “cGAS-100 nM: averaged IP-10 levels relative to ISD70” value: 75.92% for the first, 52.58% for the second.

“mA*mA*mG*mC*mA*G*T*C*T*C*C*A*T*G*T*mC*mC*mC*mA*mG (mA*mA*mG*mC*mA*dG*dT*dC*dT*dC*dC*dA*dT*dG*dT*mC*mC*mC*mA*mG; antisense) [[CDKN2B-AS1]2236]” was tested, and the “cGAS-100 nM: averaged IP-10 levels relative to ISD70” value was 107.34%.

same assay, conditions: THP-1; 300 nM LNA or 200 nM MOE ASO ~30 min; ISD70 overnight (FIG. 21, 23)

In the case of “CGCTTTTCTGTCTGGT (antisense; LNA-modified, pattern not given here) [CTNN2B-311 LNA KL]”, the “inhibition of cGAS in THP-1, LNA and MOE ASO validation (in words)” value is reported as “potently inhibited signalling”.
In the case of “CTTGAAGCATCGTATC (antisense; LNA-modified, pattern not given here) [CTNN2B-3648 LNA KL]”, the “inhibition of cGAS in THP-1, LNA and MOE ASO validation (in words)” value is reported as “failed to significantly inhibit cGAS”.
